# Assay results reported in patent US9283242B2, “Uses of dihydro bases” (priority 2013, dated 2016).
# Entries after “also recorded” stand apart in the source; their conditions may differ.
# What was measured:
# [1] = Variable temperature FTIR and 2D IR, tautomerism in aqueous solution; format: physicochemical; conditions: deuterated 0.5 M phosphate buffer pD 7.9, 10-80° C.
# Procedure: For both 1D FTIR and 2D IR experiments, the H/D exchanged KP1212 was dissolved at a concentration of 20 mg/ml (88 mM) in 0.5 M phosphate buffer pD (pH reading in D2O) 7.9. About 25 μl of sample solution was sandwiched between two CaF2 windows separated by a 50 μm TEFLON spacer. Variable-temperature FTIR spectra were collected using Nicolet 380 FTIR spectrometer at 1.0 cm^−1 resolution with 16 scans per spectrum. Spectra for both the sample and the D2O were collected with the same procedure and the solvent spectra were subtracted from the sample spectra.
# Absorptive 2D IR spectra were collected using a 2D IR spectrometer as described in detail previously (Chung, H. S., Khalil, M., Smith, A. W. & Tokmakoff, A. Transient two-dimensional IR spectrometer for probing nanosecond temperature-jump kinetics. Rev. Sci. Instrum. 78, 063101 (2007)). The relative polarizations of the pulses were set to be perpendicular (ZZYY). The waiting time (τ2) between the first two pulses and the third pulse was fixed at 150 fs. The coherence time between the first and the second pulse was scanned in 4 fs steps from −60 fs to 2.8 ps and 2.0 ps for rephasing and non-rephasing spectra, respectively. […]
# 2D IR spectroscopy is analogous to 2D NMR: sequences of ultrafast IR pulses are employed to excite molecular vibrations, and the energy flow from one vibration to others is then detected. […]
# PfuTurbo DNA polymerase = PfuTurbo DNA polymerase (Pyrococcus furiosus, UniProt P61875); assay: In vitro polymerase extension assay on KP1212-containing M13 template; format: biochemical
# Procedure: (A) A 16mer oligonucleotide containing KP1212 (SEQ ID NO: 1) (or controls) at a specific site was chemically synthesized and ligated into the genome of an M13 bacteriophage. (B) The KP1212-containing M13 genomes were replicated within E. coli cells. Progeny were analyzed to characterize the amount and the type of nucleic acid base placed opposite the lesion during replication. The relative reduction in lesion vs. non-lesion competitor progeny formation was used as an estimate of the extent to which KP1212 and m3C inhibited DNA replication. (C) The KP1212-containing M13 genomes were used as templates for in vitro polymerase extension assays, carried out at 72° C., using the high-fidelity DNA polymerase PfuTurbo. (D) Bypass efficiency (CRAB assay) of KP1212, m3C, C in HK81 (AlkB^+) and HK82 (AlkB^−) E. coli cells. m3C and undamaged C were used as controls. Genomes were made and normalized to one another before being combined with a competitor genome. Each mixture was transformed into the corresponding cell strain in triplicate, and bypass efficiency was calculated by using the undamaged C genome as 100% bypass, with error bars representing one standard deviation. (E) Mutagenesis (REAP assay) of KP1212, m3C, and C in HK82 (AlkB^−) E. coli cells. m3C, undamaged C, and an approximately equimolar mixture of genomes carrying unmodified G/A/T/C bases at the site of inquiry (denoted as GATC) were used as controls. Genomes containing the lesions of interest were transfected into E. coli in triplicate.
# The single-stranded, lesion-containing genomes, constructed above were also used as templates for in vitro polymerase extension assays. Fifty fmol of each genome were mixed with 50 pmol of REAP forward and reverse primers, 1.25 U Pfu Turbo DNA polymerase and 5 nmol of each dNTP in 1×Pfu Turbo buffer. […] Subsequently, 29 PCR cycles amplified the newly formed strand and generated a product that was then analyzed using the exact downstream steps of the REAP assay described above. […]
# [2] = in vitro, 72° C., PfuTurbo DNA polymerase (FIG. 18C)
# PfuTurbo DNA polymerase, sequence (P61875 whole entry): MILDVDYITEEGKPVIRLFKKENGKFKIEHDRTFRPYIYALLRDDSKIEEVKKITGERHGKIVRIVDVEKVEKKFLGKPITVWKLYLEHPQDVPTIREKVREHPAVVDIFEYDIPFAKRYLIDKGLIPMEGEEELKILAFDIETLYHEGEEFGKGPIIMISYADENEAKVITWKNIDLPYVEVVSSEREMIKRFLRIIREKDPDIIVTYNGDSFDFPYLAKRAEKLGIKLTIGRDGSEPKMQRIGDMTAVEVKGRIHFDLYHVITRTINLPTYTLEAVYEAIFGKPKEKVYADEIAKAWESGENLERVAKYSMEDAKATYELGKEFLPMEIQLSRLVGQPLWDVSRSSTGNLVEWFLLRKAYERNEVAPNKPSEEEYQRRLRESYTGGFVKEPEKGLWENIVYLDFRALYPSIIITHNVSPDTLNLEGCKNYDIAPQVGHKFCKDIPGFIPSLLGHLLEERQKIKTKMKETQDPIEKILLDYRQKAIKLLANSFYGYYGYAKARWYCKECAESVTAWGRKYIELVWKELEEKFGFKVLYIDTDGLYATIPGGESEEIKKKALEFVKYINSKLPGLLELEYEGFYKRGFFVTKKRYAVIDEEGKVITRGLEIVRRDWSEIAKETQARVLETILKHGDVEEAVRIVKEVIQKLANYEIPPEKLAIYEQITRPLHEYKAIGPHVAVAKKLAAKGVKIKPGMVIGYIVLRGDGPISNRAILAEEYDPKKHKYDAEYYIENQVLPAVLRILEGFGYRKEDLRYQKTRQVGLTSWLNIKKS
compound,measurement,setting,value
"NC1=NC(=O)N([C@H]2C[C@H](O)[C@@H](CO)O2)CN1 [KP1212, 5-aza-5,6-dihydro-2′-deoxycytidine]",tautomerism by FTIR and 2D IR,[1],multiple tautomeric forms; also recorded: different tautomeric forms
same,pH dependence of mispairing frequency,"PfuTurbo DNA polymerase; in vitro polymerase extension reaction, pH 7.0 and 7.8, preliminary studies",did not vary significantly
same,A placed opposite KP1212,PfuTurbo DNA polymerase; [2],9.5 % of the time
same,G placed opposite KP1212,PfuTurbo DNA polymerase; [2],90.5 % of the time
